Data published in patent US8937050B2, “Methods and compositions for treatment of autism” (The Johns Hopkins University, priority 2011, dated 2015).

Assays:
ABCD2 = settings: Li et al., 2002; cited from earlier work
K562 cells [1] = assay: Flow cytometric analysis of mitochondrial mass (Mitotracker); assay type: cell-based, human; settings: K562 cells, 1.2 mM SB or 100 μM HU; FIG. 1C
Protocol: (§1) Fibroblasts (70-95% confluent) were treated with 5 mM 4PBA (1 mM for JNK inhibition studies), 600 μM HU, 200 nM TSA, or 5 μM SFN unless otherwise specified.
K562 cells were incubated with 50 nM Mitotracker Green FM, 300 nM Mitotracker Deep Red 633 (Invitrogen), or PBS as a negative control for 15 min at 37° C. or stained with anti-Pex14 using Caltag Fix and Perm reagents (Invitrogen) following the manufacturer's instructions. Stained cells were suspended in 0.5 mL of 1% paraformaldehyde/PBS and subjected to flow cytometric analysis (FACScan machine, Becton Dickinson, Franklin Lakes, N.J.).
(§2) K562 cells were treated with SB and HU for four to ten days. […] (n≧3 unless otherwise noted).
To determine whether the induction of mitochondrial biogenesis by SB or HU treatment was necessary for the induction of HbF-producing cell production, K562 cells were treated with SB or HU in the presence or absence of AA. […] After two to four days of drug treatment with or without AA, mitochondrial mass was measured using Mitotracker, a mitochondrial stain. Fold change (drug treated/control) is shown. […] After four days of drug treatment with or without AA, cells were stained with DAF. The relative number of cells producing HbF (DAF stained cells) were plotted. […] After eight to ten days of drug treatment, peroxisome proliferation was measured using an antibody against the peroxisomal membrane protein, PEX14 and a FITC-labeled secondary antibody. Fold change (drug treated/control) is shown. In FIGS. 1C, 1D, and 1E, the * represents a statistically significant increase in a measurement between drug treated and control samples or a statistically significant decrease in a measurement between drug treated and drug treated samples in the presence of AA (p≦0.05) (Bars=SEM). This finding indicates dependence of the beneficial effect (i.e., elevated HbF levels) on induced mitochondrial biogenesis. Thus, the therapeutic effects observed in SCD may involve the pharmacological induction of mitochondrial biogenesis by SB or HU. […]

K562 cells [2] = assay: HbF-producing cell production (DAF staining); assay type: cell-based, human; settings: K562 cells, 1.2 mM SB or 100 μM HU; FIG. 1D
Protocol: as §1
K562 cells were suspended in 1.1 mL media and 240 μL of DAF [working solution 50 μL 2,7diaminofluorene (DAF) stock (50 μg DAF in 5 mL 90% glacial acetic acid), 50 μL 30% hydrogen peroxide, and 2.5 ml 200 mM Tris-HCl, pH 7.0]. DAF stained hemoglobinized cells were scored using a hemocytometer.
as §2
To determine whether the induction of mitochondrial biogenesis by SB or HU treatment was necessary for the induction of HbF-producing cell production, K562 cells were treated with SB or HU in the presence or absence of AA. […] After two to four days of drug treatment with or without AA, mitochondrial mass was measured using Mitotracker, a mitochondrial stain. Fold change (drug treated/control) is shown. […] After four days of drug treatment with or without AA, cells were stained with DAF. The relative number of cells producing HbF (DAF stained cells) were plotted. […] After eight to ten days of drug treatment, peroxisome proliferation was measured using an antibody against the peroxisomal membrane protein, PEX14 and a FITC-labeled secondary antibody. Fold change (drug treated/control) is shown. In FIGS. 1C, 1D, and 1E, the * represents a statistically significant increase in a measurement between drug treated and control samples or a statistically significant decrease in a measurement between drug treated and drug treated samples in the presence of AA (p≦0.05) (Bars=SEM). This finding indicates dependence of the beneficial effect (i.e., elevated HbF levels) on induced mitochondrial biogenesis. Thus, the therapeutic effects observed in SCD may involve the pharmacological induction of mitochondrial biogenesis by SB or HU.
K562 cells were treated for four days with HU in the presence or absence of SP600125 or PBS as a control (CON). […]

HbF = settings: Keefer et al., 2006; cited from earlier work

Compound	expression of ABCD2 (ABCD2)	mitochondrial mass (K562 cells [1])	number of HbF-producing cells (K562 cells [2])	HbF levels (HbF)
4-phenylbutyrate [4PBA]	increased			
NC(=O)NO [HU, hydroxyurea]		significantly increased	significantly increased	increased
